Assay results reported in patent US20070135499A1 (Aerie Pharmaceuticals, Inc., priority 2005, published 2007).

biological target: T1, hGRK-2 (Homo sapiens, UniProt P25098); assay: luciferase-based (Kinase-Glo) biochemical kinase inhibition assay, hGRK-2; settings: luciferase assay, casein substrate, 10 μM ATP; read-out: GRK-2 inhibition, Ki class
T1 sequence (P25098 1-689): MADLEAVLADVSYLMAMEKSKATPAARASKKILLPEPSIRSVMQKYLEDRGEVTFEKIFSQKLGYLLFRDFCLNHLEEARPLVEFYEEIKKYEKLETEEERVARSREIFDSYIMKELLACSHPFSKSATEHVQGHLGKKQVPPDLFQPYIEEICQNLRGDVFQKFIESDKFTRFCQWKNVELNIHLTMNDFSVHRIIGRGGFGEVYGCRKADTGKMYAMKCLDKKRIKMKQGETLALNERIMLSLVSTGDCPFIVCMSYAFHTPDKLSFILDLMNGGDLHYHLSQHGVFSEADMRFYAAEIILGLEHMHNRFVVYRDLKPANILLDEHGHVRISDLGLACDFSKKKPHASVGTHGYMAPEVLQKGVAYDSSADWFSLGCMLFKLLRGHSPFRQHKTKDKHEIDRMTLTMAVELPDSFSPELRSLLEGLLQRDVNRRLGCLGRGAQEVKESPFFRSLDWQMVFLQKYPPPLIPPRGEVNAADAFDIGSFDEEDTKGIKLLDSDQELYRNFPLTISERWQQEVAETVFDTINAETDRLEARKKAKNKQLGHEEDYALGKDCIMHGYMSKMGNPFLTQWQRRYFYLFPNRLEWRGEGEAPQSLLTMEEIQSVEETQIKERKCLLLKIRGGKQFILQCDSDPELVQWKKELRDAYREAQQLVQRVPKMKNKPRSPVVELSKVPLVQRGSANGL
Description: The inhibition of G-protein-coupled receptor kinases including hGRK-2 was determined for the hydrazide compounds using a biochemical assay. The inhibition of GRK-3, GRK-5 and GRK-6 was also determined using the same assay for some of the hydrazide derivatives.
The protein kinase inhibition was determined using a biochemical assay utilizing the light emission of a luciferase reaction. The luciferase-based assay operates on the following reaction principles: [drawing 10]
An inhibitor of GRK-2 will increase in the amount of ATP in solution, as shown. Thus, an inhibitor of GRK-2 will drive the luciferase reaction to the right, resulting in more light emitted. The amount of light emitted is proportional to the inhibition resulting from the GRK-2 inhibitor. The luciferase-based assay was also used to test some of the hydrazides for the inhibition properties towards other kinases.
The test procedure was as follows:
• 50 mM HEPES, pH 7.5 • 10 mM MgCl2 • 100 μM activated sodium orthovanadate • 0.01% CHAPS • 0.1% BSA • 1 mM DTT (added fresh daily) 10× Assay Buffer Stock: • 500 mM HEPES, pH 7.5 • 100 mM MgCl2 • 1 mM activated sodium orthovanadate • 0.1% CHAPS • 1% BSA (leave out for 10× compound dilution buffer) Final Assay Conditions: • 50 μM test compound • 20 μM casein • 10 μM ATP • 50 nM hGRK2 • 4.5% DMSO • 90-120 minute incubation
Stopped by addition of 30 μl 3×-diluted Kinase-Glo reagent containing 0.01% trypan blue. Counted on FUSION plate reader.
Compound Dilution and Transfer
Prepare sufficient buffer containing 40% DMSO to add 20 μl/well to the number of plates being assayed. This buffer should not contain BSA because it will precipitate with addition of 40% DMSO. (EXAMPLE: To make 3000 ml compound dilution buffer: 1200 ml DMSO, 180 ml 10× compound dilution buffer, 1615 ml ultrapure water, 3 ml 1M DTT.).
Using Multidrop, add 20 μl of compound dilution buffer to all wells of the 384-well daughter plate (add 1 μl DMSO to control wells). This will result in a daughter plate which contains 21 μl of ˜500 μM test compound.
Using the PlateTrak, transfer 5 μl of the test compounds to a 384-well, non-binding, white microtiter plate.
Prepare sufficient volume of buffer (with BSA and 1 mM DTT) containing 125 nM GRK2 and 25 μM ATP. (Example: To 219 ml of buffer was added 550 μl 10 mM ATP and 350 μl 79 μM GRK2).
Using Multidrop, add 20 μl of GRK2/ATP mixture to all wells of the microtiter plate.
Prepare sufficient volume of buffer (with BSA and 1 mM DTT) containing 40 μM casein. (EXAMPLE: To 211 ml buffer add 8.8 ml 1 mM casein)
Using Multidrop, add 25 μl to columns 1 through 23 of the microtiter plate. Add 25 μl of complete buffer to column 24 (blanks).
Mix reaction gently by tapping (Multidrop addition of casein does a decent job of mixing), stack plates and incubate at room temperature for between 90 and 120 minutes. Assay progression can be tracked in a separate plate if desired. Target 20-30% ATP consumption. Try to avoid exceeding 40% consumption as kinetics might become non-linear due to substrate (ATP) depletion.
Addition of Kinase-Glo Reagents
The Kinase-Glo reagent can be diluted 3-fold with no loss of data quality in this assay. Additionally, since the library contains many colored compounds which will quench the light emitted from the well resulting in a false negative (kinase inhibitors result in less ATP consumption thus more light emitted), the entire reaction is subject to intentional quench to override this effect. This intentional quench is accomplished by the addition of 0.01% trypan blue to the Kinase-Glo reagents. (EXAMPLE: 100 ml 1× Kinase-Glo reagents (prepared according to product insert), 200 ml assay buffer, 7.5 ml 0.4% trypan blue.
Using Multidrop, add 30 μl to all wells of the assay plate.
Count on FUSION plate reader in luminescence mode.

Row | Compound | Ki [µM]
1 | Cc1cccc(NCC(=O)N/N=C/c2c(Cl)cncc2Cl)c1 [Example 8, m-Tolylamino-acetic acid [1-(3,5-dichloro-pyridin-4-yl)-meth-(E)-ylidene]-hydrazide] | 1 to 10
2 | O=C(CNc1ccc(Cl)cc1)N/N=C/c1ccncc1 [Example 57, (4-Chloro-phenylamino)-acetic acid [1-pyridin-4-yl-meth-(E)-ylidene]-hydrazide] | 1 to 10
3 | O=C(CNc1ccc(F)cc1)N/N=C/c1c(Cl)cncc1Cl [Example 14, (4-Fluoro-phenylamino)-acetic acid [1-(3,5-dichloro-pyridin-4-yl)-meth-(E)-ylidene]-hydrazide] | 1 to 10
4 | N#Cc1cccc(NCC(=O)N/N=C/c2c(Cl)cncc2Cl)c1 [Example 3, (3-Cyano-phenylamino)-acetic acid [1-(3,5-dichloro-pyridin-4-yl)-meth-(E)-ylidene]-hydrazide] | 1 to 10
5 | Dimethyl-carbamic acid 3-{[1-pyridin-4-yl-meth-(E)-ylidene-hydrazinocarbonyl-methyl]-amino}-phenyl ester [Example 101] | > 10
6 | Cc1ccccc1Oc1ccccc1NCC(=O)N/N=C/c1c(Cl)cncc1Cl [Example 30, (^2-o-Tolyloxy-phenylamino)-acetic acid [1-(3,5-dichloro-pyridin-4-yl)-meth-(E)-ylidene]-hydrazide] | > 10
7 | CS(=O)(=O)c1cccc(NCC(=O)N/N=C/c2c(Cl)cncc2Cl)c1 [Example 23, (3-Methanesulfonyl-phenylamino)-acetic acid [1-(3,5-dichloro-pyridin-4-yl)-meth-(E)-ylidene]-hydrazide] | 1 to 10
8 | O=C(CNc1cccc(-n2cccn2)c1)N/N=C/c1c(Cl)cncc1Cl [Example 34] | > 10
9 | CC(C)c1cccc(NCC(=O)N/N=C/c2c(Cl)cncc2Cl)c1 [Example 16, (3-Isopropyl-phenylamino)-acetic acid [1-(3,5-dichloro-pyridin-4-yl)-meth-(E)-ylidene]-hydrazide] | > 10
10 | Cc1ccc(Oc2cccc(NCC(=O)N/N=C/c3c(Cl)cncc3Cl)c2)cc1 [Example 35, (3-p-Tolyloxy-phenylamino)-acetic acid [1-(3,5-dichloro-pyridin-4-yl)-meth-(E)-ylidene]-hydrazide] | 1 to 10
11 | CC(=O)Nc1cccc(NCC(=O)N/N=C/c2c(Cl)cncc2Cl)c1 [Example 27, N-(3-{[1-(3,5-Dichloro-pyridin-4-yl)-meth-(E)-ylidene-hydrazinocarbonylmethyl]-amino}-phenyl)-acetamide] | 1 to 10
12 | O=C(CNc1ccc(I)cc1)N/N=C/c1ccncc1 [Example 71, (4-Iodo-phenylamino)-acetic acid [1-pyridin-4-yl-meth-(E)-ylidene]-hydrazide] | > 10
13 | O=C(COc1cccc(Cl)c1)N/N=C/c1ccncc1 [Example 38, (3-Chloro-phenoxy)-acetic acid [1-pyridin-4-yl-meth-(E)-ylidene]-hydrazide] | > 10
14 | O=C(CNc1cccc(Oc2ccc(F)c(F)c2)c1)N/N=C/c1ccncc1 [Example 83, [3-(3,4-Difluoro-phenoxy)-phenylamino]-acetic acid [1-pyridin-4-yl-meth-(E)-ylidene]-hydrazide] | 0.1 to 1
15 | O=C(CNc1cccc(-n2cncn2)c1)N/N=C/c1ccncc1 [Example 78, (3-[1,2,4]Triazol-1-yl-phenylamino)-acetic acid [1-pyridin-4-yl-meth-(E)-ylidene]-hydrazide] | > 10
16 | O=C(CNc1cccc(C(F)(F)F)c1)N/N=C/c1ccncc1 [Example 50, (3-Trifluoromethyl-phenylamino)-acetic acid [1-pyridin-4-yl-meth-(E)-ylidene]-hydrazide] | 1 to 10
17 | O=C(CNc1ccc(Cl)cc1)N/N=C/c1c(Cl)cncc1Cl [Example 18, (4-Chloro-phenylamino)-acetic acid [1-(3,5-dichloro-pyridin-4-yl)-meth-(E)-ylidene]-hydrazide] | 1 to 10
18 | O=C(CNc1cccc([N+](=O)[O-])c1)N/N=C/c1c(Cl)cncc1Cl [Example 7, (3-Nitro-phenylamino)-acetic acid [1-(3,5-dichloro-pyridin-4-yl)-meth-(E)-ylidene]-hydrazide] | 1 to 10
19 | Cc1cccc(NCC(=O)N/N=C/c2ccncc2)c1 [Example 46, (3-Methyl-phenylamino)-acetic acid [1-pyridin-4-yl-meth-(E)-ylidene]-hydrazide] | 1 to 10
20 | N#Cc1ccc(NCC(=O)N/N=C/c2ccncc2)cc1 [Example 60] | 1 to 10
21 | Cc1ccccc1NCC(=O)N/N=C/c1c(Cl)cncc1Cl [Example 25, o-Tolylamino-acetic acid [1-(3,5-dichloro-pyridin-4-yl)-meth-(E)-ylidene]-hydrazide] | 1 to 10
22 | O=C(CNc1cccc(-n2cccn2)c1)N/N=C/c1ccncc1 [Example 82, (3-Pyrazol-1-yl-phenylamino)-acetic acid [1-pyridin-4-yl-meth-(E)-ylidene]-hydrazide] | > 10
23 | O=C(CNc1cccc(Oc2ccc(OC(F)(F)F)cc2)c1)NN=Cc1ccncc1 (mixture of isomers) [Example 77, [3-(4-Trifluoromethoxy-phenoxy)-phenylamino]-acetic acid [1-pyridin-4-yl-meth-(E/Z)-ylidene]-hydrazide] | 0.1 to 1
24 | O=C(CNc1ccccc1N1CCCCC1)N/N=C/c1ccncc1 [Example 74, (2-Piperidin-1-yl-phenylamino)-acetic acid [1-pyridin-4-yl-meth-(E)-ylidene]-hydrazide] | > 10
25 | O=C(CNc1cccc(C(F)(F)F)c1)N/N=C/c1c(Cl)cncc1Cl [Example 12, (3-Trifluoromethyl-phenylamino)-acetic acid [1-(3,5-dichloro-pyridin-4-yl)-meth-(E)-ylidene]-hydrazide] | > 10
26 | O=C(CNc1cccc(Cl)c1)N/N=C/c1ccoc1 [Example 94, (3-Chloro-phenylamino)-acetic acid [1-furan-3-yl-meth-(E)-ylidene]-hydrazide] | 1 to 10
27 | O=C(CNc1cccc(Br)c1)N/N=C/c1c(Cl)cncc1Cl [Example 6, (3-Bromo-phenylamino)-acetic acid [1-(3,5-dichloro-pyridin-4-yl)-meth-(E)-ylidene]-hydrazide] | 1 to 10
28 | O=C(CNc1cccc(Cl)c1)N/N=C/c1ccsc1 [Example 93, (3-Chloro-phenylamino)-acetic acid [1-thiophen-3-yl-meth-(E)-ylidene]-hydrazide] | > 10
